# Laboratory results as given in patent publication US11612583B2, “Disease modifying methods for treating neurodegenerative diseases using nootropic agents” (priority 2018, dated 2023).
# Entries after “also recorded” stand apart in the source; their conditions may differ.
# What was measured:
# [1] = tested on: PINK1-KO rats; test: Tyrosine hydroxylase immunofluorescence in midbrain slices of PINK1-KO rats; type: in vivo, rat; details: female PINK1-KO rats; intraperitoneal Forskolin 1.6 mg/kg with or without Noopept 0.05 μg/kg; FIG. 13
# Description: Wild-type (PINK1+/+) or PINK1 knockout (PINK1−/−) rats were treated with intraperitoneal injections of DMSO control or of Forskolin (1.6 mg/kg body weight) once every 2 days for two doses followed by co-administration with Noopept (0.05 μg/kg) for three more doses (once every two days) for up to a total treatment time of 10 days. At the end of each treatment, a battery of motor tests were performed in vehicle-treated or WT and PINK1-KO rats treated with compounds to analyze for muscle strength in hind legs by using a grip strength analyzer. In addition, muscle coordination and balance were assessed by subjecting the rats to cross a 1-meter, tapered beam balance (2 cm width) for up to three trials per animal. Another group of wild-type and PINK1-KO rats were sacrificed, and intracardially perfused with saline followed by 4% formaldehyde. Midbrain slices from wild-type and PINK1-KO rats were immunostained for tyrosine hydroxylase (TH, purple) to identify midbrain dopamine neurons. […] (*:p<0.05 vs. WT/vehicle, **:p<0.05 vs. PINK1-KO/vehicle, One-Way ANOVA, Tukey's test, N=4-7 rats per group).
# [2] = tested on: primary cortical neurons treated with rotenone; test: Extracellular acidification rates (ECARs), proxy for glycolysis, in rotenone-treated primary cortical neurons; type: cell-based, mouse; details: after rotenone 65 nM 24 hours, 6.5 μM-8.5 μM, FIG. 3
# Description: Rotenone (1.26 mM stock, Sigma, Cat #R8875) was freshly prepared in water prior to each use. Stocks of rotenone were maintained in the dark at −20° C. for up to 6 months. […]
# The extracellular acidification rates (ECARs), a proxy for glycolysis, were also assessed by using an XF24^e Extracellular Flux Analyzer in primary neurons.
# [3] = tested on: primary cortical neurons treated with rotenone; test: Image-based analysis of mitochondrial content in dendrites (MAP2B/TOM20 immunostaining); type: cell-based, mouse; details: after rotenone 65 nM; Forskolin/NKH477 6.5 μM-8.5 μM or 250 μM dbt-cAMP; FIG. 4
# Description: The rotenone-treated neurons were also studied by image-based analyses of mitochondrial content in dendrites from primary cortical neurons immunostained for dendrites (MAP2B) and for mitochondria (TOM20).
# [4] = tested on: PINK1 knockout mice; test: Dendrite length and mitochondrial content of substantia nigra dopamine neurons in PINK1 knockout mice; type: in vivo, mouse; details: intraperitoneal 1 mg/kg once every 2 days up to one week, vs untreated PINK1 knockout mice
# Description: (§1) All experiments involving mice and rats were performed in accord with ARRIVE (Animal Research: Reporting of In Vivo Experiments) guidelines. Wild-type C57BL/6 and PINK1 knockout mice (B6.129S4-Pink1^tm1Slm/J), wild-type (Long Evans rats) and PINK1 knockout (LEH-PINK1^tm1sage.Park6) rats (SAGE labs through Horizon Discovery) were handled humanely and appropriately per the ARRIVE guidelines. All mice were housed at the Laboratory of Animal Resources (University of Nevada, Reno) in cages containing sufficient bedding, food (pellets), water, with sufficient social, nutritional and “enriched” environments, and maintained in HVAC-pressurized/sterile environment and in 12:12 hr light/dark cycles.
# Wild-type (PINK1+/+) or PINK1 knockout (PINK1−/−) mice were treated with intraperitoneal injections of DMSO control or Forskolin (1 mg/kg body weight) once every 2 days for up to one week. At the end of each treatment, mice were sacrificed, and intracardially perfused with saline followed by 4% formaldehyde. Midbrain slices from wild-type and PINK1 KO mice were immunostained for mitochondria (TOM20) and tyrosine hydroxylase (TH, purple) to identify midbrain dopamine neurons and dendrite length.
# [5] = tested on: PINK1-KO rats; test: Hind limb grip strength in PINK1-KO rats; type: in vivo, rat; details: intraperitoneal Forskolin 1.6 mg/kg with or without Noopept 0.05 μg/kg; 10 days; post vs pre-treatment; FIG. 11
# Description: as §1
# Wild-type (PINK1+/+) or PINK1 knockout (PINK1−/−) rats were treated with intraperitoneal injections of DMSO control or of Forskolin (1.6 mg/kg body weight) once every 2 days for two doses followed by co-administration with Noopept (0.05 μg/kg) for three more doses (once every two days) for up to a total treatment time of 10 days. […] In addition, muscle coordination and balance were assessed by subjecting the rats to cross a 1-meter, tapered beam balance (2 cm width) for up to three trials per animal. […]
compound,measurement,setting,value
C=C[C@@]1(C)CC(=O)[C@]2(O)[C@@]3(C)[C@@H](O)CCC(C)(C)[C@@H]3[C@H](O)[C@H](OC(C)=O)[C@@]2(C)O1 [Forskolin],substantia nigra/midbrain dopamine neurons (integrated density of TH immunofluorescence),[1],completely reverses the loss of midbrain dopamine neurons; also recorded: significantly reversed neurodegeneration
same,glycolysis (baseline ECARs),[2],completely restored normal glycolytic function; also recorded: significantly restored
same,mitochondrial content in dendrites (% of dendrites occupied by mitochondria),[3],reversed the loss of mitochondria within dendrites; also recorded: completely blocked; also recorded: significantly restored
same,dendrite length of substantia nigra dopamine neurons,[4]; FIG. 6A,significantly increased; also recorded: reverses the loss of dendrites
same,mitochondrial content in dendrites of substantia nigra dopamine neurons,[4]; FIG. 6B,significantly increased; also recorded: reverses the loss of dendrites and mitochondria in dendrites
same,hind limb muscle strength,[5],can reverse the loss of hind limb strength; also recorded: can reverse the loss of muscle strength
